Source: patent publication US9302991B2, “Arylamide derivatives as TTX-S blockers” (RaQualia Pharma Inc., priority 2010, dated 2016)

Columns and labels:
human Nav1.3 channels = target: T1, human Nav1.3 channels (Homo sapiens, UniProt Q9NY46); experiment: FRET assay, human Nav1.3 (EFS on FDSS); format: cell-based; details: HEK293 cells expressing human Nav1.3, read-out: IC50 against Nav1.3
T1 construct: expressed in transfected cells; host or cells: HEK293
Method in brief: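 HEK293 cells expressing the channel, loaded with 10 microM CC2-DMPE then 15 microM DiSBAC2(3) plus 0.555 mM VABSC-1 in pH 7.4 HEPES buffer at room temperature. Membrane potential changes evoked by electrical field stimulation after compound addition; IC50 from 440 nm-normalized FRET ratios.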

human Nav1.7 channels = target: T2, human Nav1.7 channels (Homo sapiens, UniProt Q15858); experiment: FRET assay, human Nav1.7 (EFS on FDSS); format: cell-based; details: CHO cells expressing human Nav1.7, read-out: IC50 against Nav1.7
T2 construct: expressed in transfected cells; host or cells: CHO
Method in brief: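 IC50 was derived from normalized 440 nm fluorescence ratios of the EFS-evoked membrane-potential response read on FDSS. Recombinant CHO cells were sequentially dye-loaded with coumarin/oxonol FRET pair at room temperature in pH 7.4 buffer before compound addition.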

T1 sequence (Q9NY46 whole entry): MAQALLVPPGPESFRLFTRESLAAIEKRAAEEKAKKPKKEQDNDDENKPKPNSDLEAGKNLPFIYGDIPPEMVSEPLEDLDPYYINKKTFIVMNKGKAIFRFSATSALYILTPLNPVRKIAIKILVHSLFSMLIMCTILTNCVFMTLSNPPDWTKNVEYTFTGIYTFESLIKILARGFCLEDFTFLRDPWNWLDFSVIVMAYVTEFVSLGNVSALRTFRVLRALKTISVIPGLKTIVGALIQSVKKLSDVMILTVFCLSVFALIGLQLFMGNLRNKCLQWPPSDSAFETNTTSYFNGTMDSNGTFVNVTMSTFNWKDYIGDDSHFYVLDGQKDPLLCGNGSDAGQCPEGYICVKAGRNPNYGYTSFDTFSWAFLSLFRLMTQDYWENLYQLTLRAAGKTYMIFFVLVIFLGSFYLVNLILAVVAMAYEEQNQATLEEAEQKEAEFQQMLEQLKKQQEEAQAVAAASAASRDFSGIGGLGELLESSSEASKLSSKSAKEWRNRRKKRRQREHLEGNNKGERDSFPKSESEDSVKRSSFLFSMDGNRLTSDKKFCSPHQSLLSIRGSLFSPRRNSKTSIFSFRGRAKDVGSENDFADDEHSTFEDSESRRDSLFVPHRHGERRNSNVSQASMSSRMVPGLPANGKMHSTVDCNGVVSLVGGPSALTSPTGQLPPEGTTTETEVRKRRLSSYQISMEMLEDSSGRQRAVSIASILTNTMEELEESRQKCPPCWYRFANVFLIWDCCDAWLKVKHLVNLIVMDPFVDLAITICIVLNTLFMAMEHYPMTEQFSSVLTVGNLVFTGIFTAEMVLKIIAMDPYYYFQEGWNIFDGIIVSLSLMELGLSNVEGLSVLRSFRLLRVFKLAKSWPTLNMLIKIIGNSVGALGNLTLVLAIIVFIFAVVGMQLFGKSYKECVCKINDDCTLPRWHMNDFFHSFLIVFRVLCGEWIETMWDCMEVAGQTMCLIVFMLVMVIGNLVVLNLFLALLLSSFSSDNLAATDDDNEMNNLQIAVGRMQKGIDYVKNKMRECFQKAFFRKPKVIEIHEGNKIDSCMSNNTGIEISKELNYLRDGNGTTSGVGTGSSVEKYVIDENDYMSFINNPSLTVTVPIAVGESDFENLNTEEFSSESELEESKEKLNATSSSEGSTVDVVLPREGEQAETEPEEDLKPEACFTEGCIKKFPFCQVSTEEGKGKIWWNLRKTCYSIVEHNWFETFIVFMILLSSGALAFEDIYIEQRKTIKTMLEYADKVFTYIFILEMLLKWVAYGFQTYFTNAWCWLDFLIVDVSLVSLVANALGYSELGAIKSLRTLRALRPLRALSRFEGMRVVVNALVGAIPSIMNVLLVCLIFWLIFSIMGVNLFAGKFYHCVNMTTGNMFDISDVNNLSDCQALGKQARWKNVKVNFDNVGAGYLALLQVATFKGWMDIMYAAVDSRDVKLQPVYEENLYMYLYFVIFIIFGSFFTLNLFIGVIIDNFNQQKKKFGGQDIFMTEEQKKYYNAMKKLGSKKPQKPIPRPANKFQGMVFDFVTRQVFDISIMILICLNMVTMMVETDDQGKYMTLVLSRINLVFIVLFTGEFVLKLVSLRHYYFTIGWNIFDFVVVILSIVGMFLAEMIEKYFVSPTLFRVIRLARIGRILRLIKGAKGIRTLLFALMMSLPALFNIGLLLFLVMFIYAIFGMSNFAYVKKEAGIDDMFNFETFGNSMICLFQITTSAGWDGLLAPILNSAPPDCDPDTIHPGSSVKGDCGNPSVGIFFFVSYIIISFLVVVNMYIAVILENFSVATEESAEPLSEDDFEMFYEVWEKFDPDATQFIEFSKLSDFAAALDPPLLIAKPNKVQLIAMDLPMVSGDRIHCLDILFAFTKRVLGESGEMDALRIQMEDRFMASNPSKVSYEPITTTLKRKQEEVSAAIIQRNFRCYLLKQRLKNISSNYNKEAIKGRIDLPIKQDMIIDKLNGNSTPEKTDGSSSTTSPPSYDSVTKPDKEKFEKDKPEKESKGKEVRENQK
T2 sequence (Q15858 whole entry): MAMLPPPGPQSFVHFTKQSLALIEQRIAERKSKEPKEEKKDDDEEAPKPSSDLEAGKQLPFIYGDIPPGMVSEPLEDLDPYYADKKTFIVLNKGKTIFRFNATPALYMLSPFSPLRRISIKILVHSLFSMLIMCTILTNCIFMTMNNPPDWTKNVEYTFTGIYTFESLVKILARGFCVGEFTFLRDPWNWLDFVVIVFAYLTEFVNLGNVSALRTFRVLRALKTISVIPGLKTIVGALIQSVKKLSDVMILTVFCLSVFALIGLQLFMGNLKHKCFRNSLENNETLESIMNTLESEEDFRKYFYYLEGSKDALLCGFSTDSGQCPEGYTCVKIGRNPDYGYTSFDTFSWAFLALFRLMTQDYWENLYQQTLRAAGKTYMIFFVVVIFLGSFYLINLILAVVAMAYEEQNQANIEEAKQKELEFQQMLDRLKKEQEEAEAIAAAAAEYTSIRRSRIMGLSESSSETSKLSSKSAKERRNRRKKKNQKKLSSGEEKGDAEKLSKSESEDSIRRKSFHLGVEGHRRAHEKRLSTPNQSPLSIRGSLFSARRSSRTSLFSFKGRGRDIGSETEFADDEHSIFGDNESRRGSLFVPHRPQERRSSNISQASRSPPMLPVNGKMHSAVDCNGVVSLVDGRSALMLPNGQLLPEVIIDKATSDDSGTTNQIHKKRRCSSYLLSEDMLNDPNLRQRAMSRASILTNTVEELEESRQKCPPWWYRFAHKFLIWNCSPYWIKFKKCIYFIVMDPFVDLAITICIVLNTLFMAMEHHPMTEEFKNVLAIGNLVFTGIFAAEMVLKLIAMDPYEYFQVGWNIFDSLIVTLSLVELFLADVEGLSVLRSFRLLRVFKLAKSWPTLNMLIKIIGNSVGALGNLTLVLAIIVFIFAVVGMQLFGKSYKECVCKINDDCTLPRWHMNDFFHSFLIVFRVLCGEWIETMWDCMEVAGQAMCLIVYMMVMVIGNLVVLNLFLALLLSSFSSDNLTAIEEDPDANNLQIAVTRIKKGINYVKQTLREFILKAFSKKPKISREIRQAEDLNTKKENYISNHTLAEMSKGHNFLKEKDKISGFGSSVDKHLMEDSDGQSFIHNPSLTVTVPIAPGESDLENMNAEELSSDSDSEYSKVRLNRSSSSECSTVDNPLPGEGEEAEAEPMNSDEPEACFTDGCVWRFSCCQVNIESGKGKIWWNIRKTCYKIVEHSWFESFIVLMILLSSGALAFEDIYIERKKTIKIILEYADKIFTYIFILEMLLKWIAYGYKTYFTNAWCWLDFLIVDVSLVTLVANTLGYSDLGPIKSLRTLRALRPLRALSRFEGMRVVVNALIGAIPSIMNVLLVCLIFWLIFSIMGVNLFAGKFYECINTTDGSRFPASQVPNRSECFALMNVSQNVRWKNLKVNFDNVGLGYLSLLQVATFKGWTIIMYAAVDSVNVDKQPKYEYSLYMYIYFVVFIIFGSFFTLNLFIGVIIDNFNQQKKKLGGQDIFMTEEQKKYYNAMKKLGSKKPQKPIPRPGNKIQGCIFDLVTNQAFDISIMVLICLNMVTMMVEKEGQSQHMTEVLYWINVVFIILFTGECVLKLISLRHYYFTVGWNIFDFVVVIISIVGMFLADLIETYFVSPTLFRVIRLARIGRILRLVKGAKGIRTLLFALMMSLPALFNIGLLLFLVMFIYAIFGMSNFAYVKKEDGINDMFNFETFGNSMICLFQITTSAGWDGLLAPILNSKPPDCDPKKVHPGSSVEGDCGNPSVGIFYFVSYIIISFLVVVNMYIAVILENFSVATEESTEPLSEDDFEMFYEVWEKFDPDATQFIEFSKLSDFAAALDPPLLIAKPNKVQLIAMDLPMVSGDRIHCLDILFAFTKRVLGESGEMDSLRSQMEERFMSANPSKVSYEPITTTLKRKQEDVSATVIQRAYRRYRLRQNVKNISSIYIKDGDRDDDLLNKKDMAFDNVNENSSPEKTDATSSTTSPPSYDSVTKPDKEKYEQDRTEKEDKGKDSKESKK

Row | IC50 (human Nav1.3 channels) | IC50 (human Nav1.7 channels) | Compound
1 | < 1000 nM | < 1000 nM | CCC(=O)Nc1cc(C(=O)NCc2cnc(OCC(F)F)c(CC)c2)ccn1 [Example 930, N-((6-(2,2-difluoroethoxy)-5-ethylpyridin-3-yl)methyl)-2-propionamidoisonicotinamide]
2 | < 1000 nM | < 1000 nM | O=C(NCc1cnc(OCC(F)(F)F)c(Cl)c1)c1ccnc(NC(=O)C2CC2)n1 [Example 411, N-((5-chloro-6-(2,2,2-trifluoroethoxy)pyridin-3-yl)methyl)-2-(cyclopropanecarboxamido)pyrimidine-4-carboxamide]
3 | < 1000 nM | < 1000 nM | O=C(NCc1cnc(OCC(F)(F)F)c(Br)c1)c1ccnc(NC(=O)C2CC2)n1 [Example 898, N-((5-bromo-6-(2,2,2-trifluoroethoxy)pyridin-3-yl)methyl)-2-(cyclopropanecarboxamido)pyrimidine-4-carboxamide]
4 | < 1000 nM | < 1000 nM | Cc1cc(C(C)NC(=O)c2ccnc(NC(=O)C3CCC3)n2)cnc1OCC(F)(F)F (single isomer, unassigned) [Example 226, 2-(cyclobutanecarboxamido)-N-(1-(5-methyl-6-(2,2,2-trifluoroethoxy)pyridin-3-yl)ethyl)pyrimidine-4-carboxamide]
5 | < 1000 nM | < 1000 nM | Cc1cc(C(=O)NC(C)c2cnc(OCC(F)F)c(C)c2)cc(NC(=O)C(C)C)n1 (single isomer, unassigned) [Example 557, N-(1-(6-(2,2-difluoroethoxy)-5-methylpyridin-3-yl)ethyl)-2-isobutyramido-6-methylisonicotinamide]
6 | < 1000 nM | < 1000 nM | Cc1cc(CNC(=O)c2ccnc(NC(=O)C3CC3)c2)ccc1OCC(F)(F)F [Example 790, 2-(cyclopropanecarboxamido)-N-(3-methyl-4-(2,2,2-trifluoroethoxy)benzyl)isonicotinamide]
7 | < 1000 nM | < 1000 nM | CCC(=O)Nc1cc(C(=O)NCc2cc(C)cc(OC(F)(F)F)c2)cc(C)n1 [Example 600, 2-methyl-N-(3-methyl-5-(trifluoromethoxy)benzyl)-6-propionamidoisonicotinamide]
8 | < 1000 nM | < 1000 nM | Cc1cc(C(=O)NCc2ccc(OCC(F)(F)F)c(C)c2)nc(NC(=O)C2CC2)n1 [Example 780, 2-(cyclopropanecarboxamido)-6-methyl-N-(3-methyl-4-(2,2,2-trifluoroethoxy)benzyl)pyrimidine-4-carboxamide]
9 | < 1000 nM | < 1000 nM | CC(=O)Nc1cc(C(=O)NCc2cccc(OC(F)(F)F)c2)cc(C)n1 [Example 525, 2-acetamido-6-methyl-N-(3-(trifluoromethoxy)benzyl)isonicotinamide]
10 | < 1000 nM | < 1000 nM | COc1nc(OCC(F)(F)F)ccc1CNC(=O)c1ccnc(NC(=O)C2CC2)c1 [Example 147, 2-(cyclopropanecarboxamido)-N-((2-methoxy-6-(2,2,2-trifluoroethoxy)pyridin-3-yl)methyl)isonicotinamide]
11 | < 1000 nM | < 1000 nM | O=C(NCc1cnc(OCC(F)(F)F)c(Br)c1)c1ccnc(NC(=O)C2CC2)c1 [Example 896, N-((5-bromo-6-(2,2,2-trifluoroethoxy)pyridin-3-yl)methyl)-2-(cyclopropanecarboxamido)isonicotinamide]

The next lines start with the molecule.

Row | Compound | IC50 (human Nav1.3 channels) | IC50 (human Nav1.7 channels)
12 | CCC(=O)Nc1nc(C)cc(C(=O)NC(C)c2cnc(OCC(F)(F)F)c(C)c2)n1 (single isomer, unassigned) [Example 227, 6-methyl-N-(1-(5-methyl-6-(2,2,2-trifluoroethoxy)pyridin-3-yl)ethyl)-2-propionamidopyrimidine-4-carboxamide] | < 1000 nM | < 1000 nM
13 | CC(=O)Nc1cc(C(=O)NC(C)c2cnc(OCC(F)(F)F)c(C)c2)ccn1 (single isomer, unassigned) [Example 85, 2-acetamido-N-(1-(5-methyl-6-(2,2,2-trifluoroethoxy)pyridin-3-yl)ethyl)isonicotinamide] | < 1000 nM | < 1000 nM
14 | CC(=O)Nc1cc(C(=O)NCc2cc(C)cc(OC(F)(F)F)c2)cc(C)n1 [Example 602, 2-acetamido-6-methyl-N-(3-methyl-5-(trifluoromethoxy)benzyl)isonicotinamide] | < 1000 nM | < 1000 nM
15 | CC(=O)Nc1cc(C(=O)NCc2cnc(OCC(F)(F)F)c(C)c2)cc(C)n1 [Example 371, 2-acetamido-6-methyl-N-((5-methyl-6-(2,2,2-trifluoroethoxy)pyridin-3-yl)methyl)isonicotinamide] | < 1000 nM | < 1000 nM
16 | CCC(=O)Nc1cc(C(=O)NCc2ccc(OCC(F)(F)F)c(C)c2)ccn1 [Example 789, N-(3-methyl-4-(2,2,2-trifluoroethoxy)benzyl)-2-propionamidoisonicotinamide] | < 1000 nM | < 1000 nM
17 | CCC(=O)Nc1cc(C(=O)NC(C)c2cccc(OCC(F)(F)F)n2)cc(C)n1 (single isomer, unassigned) [Example 139, 2-methyl-6-propionamido-N-(1-(6-(2,2,2-trifluoroethoxy)pyridin-2-yl)ethyl)isonicotinamide] | < 1000 nM | < 1000 nM
18 | Cc1cc(C(=O)NCc2cc(C(F)(F)F)ccc2F)cc(NC(=O)C2CC2)n1 [Example 975, 2-(cyclopropanecarboxamido)-N-(2-fluoro-5-(trifluoromethyl)benzyl)-6-methylisonicotinamide] | < 1000 nM | < 1000 nM
19 | Cc1cc(C(=O)NCc2ccc(OCC(F)(F)F)c(C)c2)cc(NC(=O)C2CC2)n1 [Example 831, 2-(cyclopropanecarboxamido)-6-methyl-N-(3-methyl-4-(2,2,2-trifluoroethoxy)benzyl)isonicotinamide] | < 1000 nM | < 1000 nM
20 | Cc1cc(C(=O)NC(C)c2cccc(OC(F)(F)F)c2)cc(NC(=O)C(C)C)n1 (single isomer, unassigned) [Example 499, 2-isobutyramido-6-methyl-N-(1-(3-(trifluoromethoxy)phenyl)ethyl)isonicotinamide] | < 1000 nM | < 1000 nM
21 | CCC(=O)Nc1cc(C(=O)NCc2ccc(OCC(F)(F)C(F)(F)F)nc2)cc(C)n1 [Example 643, 2-methyl-N-((6-(2,2,3,3,3-pentafluoropropoxy)pyridin-3-yl)methyl)-6-propionamidoisonicotinamide] | < 1000 nM | < 1000 nM
22 | CCC(=O)Nc1cc(C(=O)NCc2cnc(OCC(F)(F)F)c(C)c2)ccn1 [Example 368, N-((5-methyl-6-(2,2,2-trifluoroethoxy)pyridin-3-yl)methyl)-2-propionamidoisonicotinamide] | < 1000 nM | < 1000 nM
23 | COc1nc(OCC(F)(F)F)ccc1CNC(=O)c1ccnc(NC(=O)C(C)C)c1 [Example 171, 2-isobutyramido-N-((2-methoxy-6-(2,2,2-trifluoroethoxy)pyridin-3-yl)methyl)isonicotinamide] | < 1000 nM | < 1000 nM
24 | Cc1cc(C(C)NC(=O)c2ccnc(NC(=O)C(C)C)c2)cnc1OCC(F)F (single isomer, unassigned) [Example 555, N-(1-(6-(2,2-difluoroethoxy)-5-methylpyridin-3-yl)ethyl)-2-isobutyramidoisonicotinamide] | < 1000 nM | < 1000 nM
25 | CCC(=O)Nc1cc(C(=O)NCc2ccc(OCC(F)(F)F)nc2)cc(C)n1 [Example 153, 2-methyl-6-propionamido-N-((6-(2,2,2-trifluoroethoxy)pyridin-3-yl)methyl)isonicotinamide] | < 1000 nM | < 1000 nM
26 | CCC(=O)Nc1cc(C(=O)NC(C)c2cccc(OC(F)(F)F)c2)cc(C)n1 (single isomer, unassigned) [Example 134, 2-methyl-6-propionamido-N-(1-(3-(trifluoromethoxy)phenyl)ethyl)isonicotinamide] | < 1000 nM | < 1000 nM
27 | Cc1cc(C(=O)NC(C)c2cnc(OCC(F)(F)C(F)F)c(C)c2)cc(NC(=O)C(C)C)n1 (single isomer, unassigned) [Example 905, 2-isobutyramido-6-methyl-N-(1-(5-methyl-6-(2,2,3,3-tetrafluoropropoxy)pyridin-3-yl)ethyl)isonicotinamide] | < 1000 nM | < 1000 nM
28 | CCC(=O)Nc1cc(C(=O)NCc2cccc(OCC(F)(F)F)n2)cc(C)n1 [Example 467, 2-methyl-6-propionamido-N-((6-(2,2,2-trifluoroethoxy)pyridin-2-yl)methyl)isonicotinamide] | < 1000 nM | < 1000 nM
29 | CCC(=O)Nc1cc(C(=O)NCc2cnc(OCC(F)(F)F)c(Cl)c2)ccn1 [Example 94, N-((5-chloro-6-(2,2,2-trifluoroethoxy)pyridin-3-yl)methyl)-2-propionamidoisonicotinamide] | < 1000 nM | < 1000 nM
30 | Cc1cc(C(C)NC(=O)c2ccnc(NC(=O)C3CC3)c2)cnc1OCC(F)(F)C(F)F (single isomer, unassigned) [Example 926, 2-(cyclopropanecarboxamido)-N-(1-(5-methyl-6-(2,2,3,3-tetrafluoropropoxy)pyridin-3-yl)ethyl)isonicotinamide] | < 1000 nM | < 1000 nM
31 | CCc1cc(CNC(=O)c2cc(C)nc(NC(=O)C3CC3)c2)cnc1OCC(F)(F)F [Example 825, 2-(cyclopropanecarboxamido)-N-((5-ethyl-6-(2,2,2-trifluoroethoxy)pyridin-3-yl)methyl)-6-methylisonicotinamide] | < 1000 nM | < 1000 nM
